Measured values taken from publication PMC5371667, “Targeting Bile Acid Receptors: Discovery of a Potent and Selective Farnesoid X Receptor Agonist as a New Lead in the Pharmacological Approach to Liver Diseases” (Frontiers in Pharmacology, 2017).
Where two headings read alike, the source gives them in different places.

Legend:
[1] = cited from earlier work
GST-fusion FXR-LBD = biological target: T1, GST-fusion FXR-LBD (Homo sapiens, UniProt Q96RI1); experiment: Alpha Screen coactivator (SRC-1 peptide) recruitment assay; format: biochemical; conditions: recruitment of SRC-1 co-activator peptide, Alfa Screen, Table 1; for Efficacy: 6-ECDCA = 100
T1 construct: 10 nM of purified GST-tagged FXR-LBD protein
T1 sequence (Q96RI1 262-486 limits assumed): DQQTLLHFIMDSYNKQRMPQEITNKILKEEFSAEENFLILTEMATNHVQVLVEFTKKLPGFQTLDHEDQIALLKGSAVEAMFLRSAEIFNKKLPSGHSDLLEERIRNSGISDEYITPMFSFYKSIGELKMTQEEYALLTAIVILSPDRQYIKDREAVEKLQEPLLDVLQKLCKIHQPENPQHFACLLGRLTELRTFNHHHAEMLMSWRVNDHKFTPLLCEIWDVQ
Method: Activation of FXR was determined by Alpha Screen Technology in a Coactivator Recruitment Assay. Anti-GST-coated acceptor beads were used to capture the GST-fusion FXR-LBD, whereas the biotinylated-SRC-1 peptide was captured by the streptavidin donor beads. Upon illumination at 680 nm, chemical energy is transferred from donor to acceptor beads across the complex streptavidin-donor/[…]-LBD/anti-GST-acceptor and a signal is produced. The assay was performed in white, low-volume, 384-well Optiplates (PerkinElmer) using a final volume of 25 μL containing final concentrations of 10 nM of purified GST-tagged FXR-LBD protein, 30 nM biotinylated SRC-1 peptide, 20 μg/mL anti-GST acceptor beads, and 10 μg/mL of streptavidin donor bead (PerkinElmer). The assay buffer contained 50 mM Tris (pH 7.4), 50 mM KCl and 1 mM DTT. The stimulation times with 1 μL of tested compound (dissolved in 50% DMSO/H2O) were fixed to 30 min at room temperature. The concentration of DMSO in each well was maintained at a final concentration of 2%. After the addition of the detection mix (acceptor and donor beads), the plates were incubated in the dark for 3 h at room temperature and then were read in an Envision microplate analyzer (PerkinElmer).

[2] = In vivo metabolic profile of compound 2 in mice (LC-MS); conditions: 50 mg/kg oral of compound 2, LC-MS
hFXR = biological target: T2, hFXR (Homo sapiens, UniProt Q96RI1); experiment: FXR transactivation on HepG2 cells (luciferase reporter); format: cell-based
T2 construct: expressed in transfected cells; host or cells: HepG2
T2 sequence (Q96RI1 1-486): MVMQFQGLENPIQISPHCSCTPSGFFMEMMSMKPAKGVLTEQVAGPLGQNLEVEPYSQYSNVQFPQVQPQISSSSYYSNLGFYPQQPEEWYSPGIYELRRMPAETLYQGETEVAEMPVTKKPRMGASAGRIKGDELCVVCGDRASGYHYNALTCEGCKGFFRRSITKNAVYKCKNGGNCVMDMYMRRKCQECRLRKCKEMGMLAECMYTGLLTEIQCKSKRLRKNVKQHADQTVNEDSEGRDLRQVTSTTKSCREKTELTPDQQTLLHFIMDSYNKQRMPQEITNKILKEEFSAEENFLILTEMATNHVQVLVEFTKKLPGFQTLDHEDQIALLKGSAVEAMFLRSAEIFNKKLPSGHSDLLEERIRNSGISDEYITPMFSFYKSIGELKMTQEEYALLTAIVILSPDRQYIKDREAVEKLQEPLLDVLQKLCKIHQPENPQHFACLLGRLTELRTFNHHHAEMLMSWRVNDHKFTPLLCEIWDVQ
T2 sequence (P19793 1-462 partner): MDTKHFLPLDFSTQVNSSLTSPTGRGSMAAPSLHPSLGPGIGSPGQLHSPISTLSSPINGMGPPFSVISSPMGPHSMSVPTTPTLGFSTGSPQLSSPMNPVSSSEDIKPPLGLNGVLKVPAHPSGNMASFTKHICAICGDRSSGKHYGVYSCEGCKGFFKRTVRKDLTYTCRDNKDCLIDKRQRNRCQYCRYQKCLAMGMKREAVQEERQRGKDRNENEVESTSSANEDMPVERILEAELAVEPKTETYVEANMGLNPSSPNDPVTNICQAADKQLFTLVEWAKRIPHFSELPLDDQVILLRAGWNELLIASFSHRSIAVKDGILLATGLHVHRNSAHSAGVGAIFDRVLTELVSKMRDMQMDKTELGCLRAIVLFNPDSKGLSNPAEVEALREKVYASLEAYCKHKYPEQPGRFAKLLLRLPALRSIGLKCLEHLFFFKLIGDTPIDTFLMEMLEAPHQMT
Method: HepG2 (HB, 8065 from ATCC), an immortalized human epatocarcinoma cell line, was cultured and maintained at 37°C and 5% CO2 in E-MEM additioned with 10% FBS, 1% glutamine, and 1% penicillin/streptomycin. For FXR mediated transactivation, HepG2 cells were plated at 5 × 10^4 cells/well in a 24 well plate. Cells were transfected with 200 ng of the reporter vector p(hsp27)-TK-LUC containing a FXR response element (IR1) cloned from the promoter of heat shock protein 27 (hsp27), 100 ng of pSG5-FXR, 100 ng of pSG5-RXR, and 100 ng of pGL4.70 (Promega), a vector encoding the human Renilla gene. For GPBAR1 mediated transactivation, HepG2 cells were plated at 5 × 10^4 cells/well in a 24 well-plate and transfected with 200 ng of pGL4.29 (Promega), a reporter vector containing a cAMP response element (CRE) that drives the transcription of the luciferase reporter gene luc2P, with 100 ng of pCMVSPORT6-human GPBAR1, and with 100 ng of pGL4.70 Renilla. […]. TLCA (10 μM) was used as a positive control for GPBAR1 activity.
HepG2 cells were transfected as described above and then treated with increasing concentrations of compounds. At 18 h post stimulations, cellular lysates were assayed for luciferase and Renilla activities using the Dual-Luciferase Reporter assay system (E1980, Promega). Luminescence was measured using Glomax 20/20 luminometer (Promega). Luciferase activities were normalized with Renilla activities.

human GPBAR1 = biological target: T3, human GPBAR1 (Homo sapiens, UniProt Q8TDU6); experiment: GPBAR1 transactivation on HepG2 cells (CRE luciferase reporter); format: cell-based; conditions: compounds at 1 and 10 μM, TLCA 10 μM positive control
T3 construct: expressed in transfected cells; host or cells: HepG2
T3 sequence (Q8TDU6 1-330): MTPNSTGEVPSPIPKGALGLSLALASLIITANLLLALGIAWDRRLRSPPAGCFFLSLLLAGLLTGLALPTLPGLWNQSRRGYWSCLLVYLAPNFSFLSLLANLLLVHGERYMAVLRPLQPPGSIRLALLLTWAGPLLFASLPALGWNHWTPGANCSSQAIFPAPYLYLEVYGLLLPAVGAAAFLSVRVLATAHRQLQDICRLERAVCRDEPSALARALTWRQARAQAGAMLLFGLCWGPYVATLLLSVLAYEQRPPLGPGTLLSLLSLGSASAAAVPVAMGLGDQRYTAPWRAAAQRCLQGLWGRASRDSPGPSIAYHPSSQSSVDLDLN
Method: For FXR mediated transactivation, HepG2 cells were plated at 5 × 10^4 cells/well in a 24 well plate. Cells were transfected with 200 ng of the reporter vector p(hsp27)-TK-LUC containing a FXR response element (IR1) cloned from the promoter of heat shock protein 27 (hsp27), 100 ng of pSG5-FXR, 100 ng of pSG5-RXR, and 100 ng of pGL4.70 (Promega), a vector encoding the human Renilla gene. For GPBAR1 mediated transactivation, HepG2 cells were plated at 5 × 10^4 cells/well in a 24 well-plate and transfected with 200 ng of pGL4.29 (Promega), a reporter vector containing a cAMP response element (CRE) that drives the transcription of the luciferase reporter gene luc2P, with 100 ng of pCMVSPORT6-human GPBAR1, and with 100 ng of pGL4.70 Renilla. […] TLCA (10 μM) was used as a positive control for GPBAR1 activity.

[3] = PBC patients, ref Mason et al., 2010

Q: For `CC[C@H]1[C@@H](O)[C@@H]2[C@H](CC[C@]3(C)[C@@H]([C@H](C)CCC(=O)O)CC[C@@H]23)[C@@]2(C)CC[C@@H](O)C[C@@H]12` [6-ECDCA], which “patients with drug discontinuation caused by pruritus” value [1, 3] is on record?
A: 40%

Q: And the “patients with pruritus (itching)” value [1, 3]?
A: 50–60%

Q: And the “patients with pruritus (itching)” value ([1]; patients with NASH, ref Neuschwander-Tetri et al., 2015)?
A: 23%

Q: With `CCC1C(=O)C2C3CCC(C(C)CCC(=O)O)C3(C)CCC2C2(C)CCC(N=[N+]=[N-])CC12` (stereo not shown) [compound 1] as the compound, how does the Efficacy (GST-fusion FXR-LBD) read?
A: 32

Q: Which “recovery in bile and plasma after administration of compound 2” value [2] does the source give for `CC[C@H]1[C@@H](O)C2C3CC[C@H]([C@H](C)CCC(=O)NCCS(=O)(=O)O)[C@@]3(C)CCC2[C@@]2(C)CC[C@H](N=[N+]=[N-])C[C@@H]12` (stereo partly shown) [compound 2a] here?
A: efficiently recovered in bile and in plasma

Q: What about the EC50 (hFXR; 10 nM to 25 μM, 18 h) of the same compound?
A: 3950 nM

Q: What about the “agonist activity toward FXR” value (hFXR; dose-response) of the same compound?
A: full agonist activity

Q: Which EC50 (GST-fusion FXR-LBD) does the source give for `CCC1C(O)C2C3CCC(C(C)CCCO)C3(C)CCC2C2(C)CCC(N=[N+]=[N-])CC12` (stereo not shown) [compound 3] here?
A: 550 ± 80 nM

Q: And the Efficacy (GST-fusion FXR-LBD)?
A: 55

Q: With `CCC1C(O)C2C3CCC(C(C)CCCO)C3(C)CCC2C2(C)CCC(N=[N+]=[N-])CC12` (stereo not shown) [compound 4] as the compound, how does the Efficacy (GST-fusion FXR-LBD) read?
A: 39

Q: With `CCC1C(=O)C2C3CCC(C(C)CCC(=O)O)C3(C)CCC2C2(C)CCC(N=[N+]=[N-])CC12` (stereo not shown) [compound 5] as the compound, how does the Efficacy (GST-fusion FXR-LBD) read?
A: 24

Q: With `CCC1C(O)C2C3CCC(C(C)CCC(=O)O)C3(C)CCC2C2(C)CCC(N=[N+]=[N-])CC12` (stereo not shown) [compound 6] as the compound, how does the EC50 (GST-fusion FXR-LBD) read?
A: 1380 ± 350 nM

Q: And the Efficacy (GST-fusion FXR-LBD)?
A: 61

Q: With `CCC1C(O)C2C3CCC(C(C)CCCO)C3(C)CCC2C2(C)CCC(N=[N+]=[N-])CC12` (stereo not shown) [compound 7] as the compound, how does the EC50 (GST-fusion FXR-LBD) read?
A: 1800 ± 210 nM

Q: What about the Efficacy (GST-fusion FXR-LBD) of the same compound?
A: 57

Q: With `CCC1C(O)C2C3CCC(C(C)CCCO)C3(C)CCC2C2(C)CCC(N=[N+]=[N-])CC12` (stereo not shown) [compound 8] as the compound, how does the Efficacy (GST-fusion FXR-LBD) read?
A: 49

Q: With `CCC1C(O)C2C3CCC(C(C)CCCO)C3(C)CCC2C2(C)CCC(N)CC12` (stereo not shown) [compound 11] as the compound, how does the GPBAR1 transactivation (human GPBAR1) read?
A: residual activity

Q: For `CCC1C(=O)C2C3CCC(C(C)CCC(=O)O)C3(C)CCC2C2(C)CCC(N)CC12` (stereo not shown) [compound 13], which GPBAR1 transactivation (human GPBAR1) is on record?
A: residual activity

Q: With `CCC1C(O)C2C3CCC(C(C)CCC(=O)O)C3(C)CCC2C2(C)CCC(N)CC12` (stereo not shown) [compound 14] as the compound, how does the GPBAR1 transactivation (human GPBAR1) read?
A: residual activity
